Measured values from paper PMC7918538 (Pharmaceuticals, 2021).
Values after ≈ are worked out from the molar mass of the structure shown. Values joined by “and” are separate entries in the source; they are usually repeats but may differ in a detail not shown here. Equal entries are not always repeated. Where two headings read alike, the source gives them in different places.

What was measured:
[1] = target: T1, Recombinant M. tuberculosis MbtI (Mycobacterium tuberculosis, UniProt P9WFX1); assay: MbtI enzymatic inhibition assay (fluorimetric, salicylic acid formation); format: biochemical; details: for activity against MbtI (in words): discussion of Table 1
T1 construct: made in house
Procedure: Recombinant M. tuberculosis MbtI was produced and purified as previously reported. Enzyme activity was determined at 37 °C, measuring the formation of salicylic acid by a fluorimetric assay, slightly modified from Vasan et al.. Briefly, the reactions were performed in a final volume of 400 μL of 50 mM Hepes pH 7.5, 5 mM MgCl2, containing 1-2 μM MbtI, by the addition of chorismic acid, and monitored using a Perkin-Elmer LS3 fluorimeter (Ex. λ = 305 nm, Em. λ = 420 nm). Inhibition assays were performed in the presence of the compound at 100 µM (stock solution 20 mM in DMSO) and 50 µM chorismic acid. Where possible, compounds were tested both as free acids and sodium salts, providing analogous results. […] To this end, the activity was measured at different compound concentrations, and values were calculated according to Equation (1), with Origin 8 software:(1) A[I] = A[0] × (1 −[I]/[I] + IC50) where A[I] is the activity at inhibitor concentration [I] and A[0] is the activity in the absence of the inhibitor.
The Ki was determined at different substrate [S] and compound concentrations, using Equation (2):(2) v = Vmax[S]/[S] + Km (1 + [I]/Ki)

[2] = target: T1, Recombinant M. tuberculosis MbtI; details: cited from earlier work; for %RA (% residual enzymatic activity at 100 µM): previous furan leads I and II shown in Table 1 for comparison
eukaryotic cells = system: eukaryotic cells; set-up: method as in PMID 32530281, PMID 30889995, PMID 29940465, PMID 29933627; details: previous leads; cited from earlier work
M. bovis BCG [3] = assay: microbe, parasite or virus in culture; format: cell-based
M. bovis BCG [4] = details: previous lead I given for comparison; cited from earlier work
[5] = Series A R = m-CNPh, compound 100 µM, 50 µM chorismic acid, read-out: %RA (% residual enzymatic activity at 100 µM)
[6] = Series A R = m-CNPh, only for compounds with %RA ≤ 25%, read-out: IC50
[7] = compound 100 µM, rounded value, read-out: % residual enzymatic activity (%RA) at 100 µM
[8] = Series B R = p-NO2Ph, compound 100 µM, 50 µM chorismic acid, read-out: %RA (% residual enzymatic activity at 100 µM)
[9] = Series B R = p-NO2Ph, only for compounds with %RA ≤ 25%, read-out: IC50
[10] = Table 2, furans IV–IX, compound 100 µM, 50 µM chorismic acid, read-out: % RA (% residual enzymatic activity at 100 µM)
[11] = Table 2, furans IV–IX, only for compounds with %RA ≤ 25%, read-out: IC50
[12] = rounded value, read-out: IC50 against MbtI

T1 sequence (P9WFX1 whole entry): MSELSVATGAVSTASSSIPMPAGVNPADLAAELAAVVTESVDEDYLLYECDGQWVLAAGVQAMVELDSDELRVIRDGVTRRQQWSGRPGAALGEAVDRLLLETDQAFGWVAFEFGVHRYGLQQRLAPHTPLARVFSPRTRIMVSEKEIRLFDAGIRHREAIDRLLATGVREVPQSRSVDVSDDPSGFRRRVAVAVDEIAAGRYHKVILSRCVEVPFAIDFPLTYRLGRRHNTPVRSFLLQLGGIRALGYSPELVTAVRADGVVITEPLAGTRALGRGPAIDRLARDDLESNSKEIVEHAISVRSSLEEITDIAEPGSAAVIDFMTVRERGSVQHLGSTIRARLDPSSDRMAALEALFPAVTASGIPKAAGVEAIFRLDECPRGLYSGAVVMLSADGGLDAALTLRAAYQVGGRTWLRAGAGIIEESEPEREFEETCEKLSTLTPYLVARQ

N#Cc1cccc(-c2ccc(C(=O)O)s2)c1 [1a, 5-(3-Cyanophenyl)thiophene-2-carboxylic acid]
remaining activity at 100 µM [1, 5]: 23.7 ± 5%
IC50 [1, 6]: 35.5 ± 1.9 µM
remaining activity at 100 µM [1, 7]: ~23%
melting point: 207 °C

O=C(O)c1ccc(-c2ccc([N+](=O)[O-])cc2)s1 [1b, 5-(4-Nitrophenyl)thiophene-2-carboxylic acid]
remaining activity at 100 µM [1, 8]: 22.5 ± 10.8%
IC50 [1, 9]: 18.6 ± 1.7 µM
remaining activity at 100 µM [1, 7]: ~23%
melting point: 189 °C

N#Cc1cccc(-c2cnc(C(=O)[O-])s2)c1.[Na+] [2a, Sodium 5-(3-cyanophenyl)thiazole-2-carboxylate]
remaining activity at 100 µM [1, 5]: 24.8 ± 1.8%
IC50 [1, 6]: 41.9 ± 7.3 µM
activity against MbtI (in words) [1]: weaker inhibitors
melting point: > 300 °C (dec.)

O=C([O-])c1ncc(-c2ccc([N+](=O)[O-])cc2)s1.[Na+] [2b, Sodium 5-(4-nitrophenyl)thiazole-2-carboxylate]
remaining activity at 100 µM [1, 8]: 32.8 ± 2.3%
activity against MbtI (in words) [1]: weaker inhibitors
melting point: > 300 °C (dec.)

N#Cc1cccc(-c2cnc(C(=O)[O-])o2)c1.[Na+] [3a, Sodium 5-(3-cyanophenyl)oxazole-2-carboxylate]
remaining activity at 100 µM [1, 5]: 38 ± 7.6%
activity against MbtI (in words) [1]: negligible activity
melting point: > 300 °C (dec.)

O=C([O-])c1ncc(-c2ccc([N+](=O)[O-])cc2)o1.[Na+] [3b, Sodium 5-(4-nitrophenyl)oxazole-2-carboxylate]
remaining activity at 100 µM [1, 8]: 23 ± 7.8%
IC50 [1, 9]: 21.1 ± 2.7 µM
activity against MbtI (in words) [1]: modest activity
melting point: > 300 °C (dec.)

N#Cc1cccc(-c2cnc(C(=O)O)[nH]2)c1 [4a, 5-(3-Cyanophenyl)-1H-imidazole-2-carboxylic acid]
remaining activity at 100 µM [1, 5]: 21.2 ± 1%
IC50 [1, 6]: 39.3 ± 3 µM
activity against MbtI (in words) [1]: weak activity
melting point: 165 °C

O=C(O)c1ncc(-c2ccc([N+](=O)[O-])cc2)[nH]1 [4b, 5-(4-Nitrophenyl)-1H-imidazole-2-carboxylic acid]
remaining activity at 100 µM [1, 8]: 18.2 ± 4.9%
IC50 [1, 9]: 27.5 ± 2.3 µM
activity against MbtI (in words) [1]: weak activity
melting point: 137 °C

N#Cc1cc(C(F)(F)F)ccc1-c1ccc(C(=O)O)o1 [5-(2-cyano-4-(trifluoromethyl)phenyl)furan-2-carboxylic acid]
IC50 ([2]; previously published disubstituted furans, read-out: IC50 against MbtI): ~18 µM

N#Cc1cccc(-c2nnc(C(=O)O)o2)c1 [5a, 5-(3-Cyanophenyl)-1,3,4-oxadiazole-2-carboxylic acid]
remaining activity at 100 µM [1, 5]: 75 ± 9.8%
melting point: 222 °C (dec.)

O=C(O)c1nnc(-c2ccc([N+](=O)[O-])cc2)o1 [5b, 5-(4-Nitrophenyl)-1,3,4-oxadiazole-2-carboxylic acid]
remaining activity at 100 µM [1, 8]: 59 ± 4.3%
melting point: 220 °C (dec.)

N#Cc1cccc(-n2cc(C(=O)O)nn2)c1 [6a, 1-(3-Cyanophenyl)-1H-1,2,3-triazole-4-carboxylic acid]
remaining activity at 100 µM [1, 5]: 67.9 ± 6.6%

O=C(O)c1cn(-c2ccc([N+](=O)[O-])cc2)nn1 [6b, 1-(4-Nitrophenyl)-1H-1,2,3-triazole-4-carboxylic acid]
remaining activity at 100 µM [1, 8]: 32.7 ± 7.8%
melting point: 175 °C

O=C(O)c1ccc(-c2ccccc2)o1 [III]
MbtI activity (in words) ([2]; removal of the substituent from the phenyl ring): complete loss of activity

O=C(O)c1ccc(-c2ccc([N+](=O)[O-])cc2)o1 [II]
%RA (% residual enzymatic activity at 100 µM) [2]: 18.2 ± 5.1%
cytotoxicity towards eukaryotic cells (in words) (eukaryotic cells): negligible cytotoxicity

N#Cc1cc(-c2ccc(C(=O)O)o2)cc(C(F)(F)F)c1 [IV, 5-(3-Cyano-5-(trifluoromethyl)phenyl)furan-2-carboxylic acid]
remaining activity at 100 µM [1, 10]: 0.7 ± 2.7%
IC50 [1, 11]: 15.5 ± 3.1 µM
Ki ([1]; kinetic analysis at different chorismic acid and compound concentrations): 9.2 µM and ~9 µM
remaining activity at 100 µM ([1]; read-out: % residual enzymatic activity (%RA) at 100 µM): ~1%
IC50 [1, 12]: ~15 µM
nature of inhibition against MbtI ([1]; steady-state kinetics towards chorismic acid): competitive inhibitor
MIC99 (M. bovis BCG [3]; M. bovis BCG, iron-limiting conditions (chelated Sauton's medium), REMA): 125 µM (≈ 35.1 µg/mL)
MIC99 (M. bovis BCG [3]; Mycobacterium tuberculosis variant bovis BCG, BCG): 125 µM (≈ 35.1 µg/mL)

N#Cc1cc(O)cc(-c2ccc(C(=O)O)o2)c1 [IX, 5-(3-cyano-5-hydroxyphenyl)furan-2-carboxylic acid]
remaining activity at 100 µM [1, 10]: 15.3 ± 2.6%
IC50 [1, 11]: 33.5 ± 3.4 µM
IC50 [1, 12]: ~33 µM

N#Cc1cccc(-c2ccc(C(=O)O)o2)c1 [I]
%RA (% residual enzymatic activity at 100 µM) [2]: 3.1 ± 1.0%
MIC99 (M. bovis BCG [4]): 250 µM (≈ 53.3 µg/mL)
cytotoxicity towards eukaryotic cells (in words) (eukaryotic cells): negligible cytotoxicity

O=C(O)c1ccc(-c2cc(C(F)(F)F)cc(C(F)(F)F)c2)o1 [V, 5-(3,5-Bis(trifluoromethyl)phenyl)furan-2-carboxylic acid]
remaining activity at 100 µM [1, 10]: 8.9 ± 1.6%
IC50 [1, 11]: 18.8 ± 6.8 µM
IC50 [1, 12]: ~19 µM

N#Cc1cc(F)cc(-c2ccc(C(=O)O)o2)c1 [VI, 5-(3-cyano-5-fluorophenyl)furan-2-carboxylic acid]
remaining activity at 100 µM [1, 10]: 8.7 ± 1.4%
IC50 [1, 11]: 17.3 ± 3.1 µM

COc1cc(C#N)cc(-c2ccc(C(=O)O)o2)c1 [VII, 5-(3-Cyano-5-methoxyphenyl)furan-2-carboxylic acid]
remaining activity at 100 µM [1, 10]: 10.5 ± 3.9%
IC50 [1, 11]: 14.5 ± 2.1 µM
activity against MbtI (in words) [1]: comparable IC50 with respect to IV

Cc1cc(C#N)cc(-c2ccc(C(=O)O)o2)c1 [VIII, 5-(3-cyano-5-methylphenyl)furan-2-carboxylic acid]
remaining activity at 100 µM [1, 10]: 16.7 ± 3.8%
IC50 [1, 11]: 29.1 ± 1.8 µM
IC50 [1, 12]: ~29 µM
